Data from patent publication US20260250290A1 (BRISTOL-MYERS SQUIBB COMPANY, priority 2023, published 2026).

Target: T1, full length SGK1 (Homo sapiens, UniProt O00141)
T1 construct: 125 μM full length SGK1 (Life Technologies Part #PR7358A); purchased Life Technologies PR7358A
T1 sequence (O00141 1-431): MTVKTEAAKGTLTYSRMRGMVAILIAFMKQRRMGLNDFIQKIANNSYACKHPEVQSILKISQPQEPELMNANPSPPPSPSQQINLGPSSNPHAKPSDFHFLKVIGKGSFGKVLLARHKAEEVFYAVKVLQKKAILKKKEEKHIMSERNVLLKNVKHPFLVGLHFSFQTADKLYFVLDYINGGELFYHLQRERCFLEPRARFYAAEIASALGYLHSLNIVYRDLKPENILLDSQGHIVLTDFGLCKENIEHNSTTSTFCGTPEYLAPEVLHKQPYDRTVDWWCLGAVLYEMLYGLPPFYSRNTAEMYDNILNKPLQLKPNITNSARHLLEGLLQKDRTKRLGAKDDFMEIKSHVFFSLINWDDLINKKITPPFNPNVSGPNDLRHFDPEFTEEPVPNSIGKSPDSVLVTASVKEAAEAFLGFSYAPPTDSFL
Assay: SGK1 inhibition Assay A (Caliper LabChip electrophoretic separation of fluorescent peptide substrate and phosphorylated product)
Assay type: biochemical
Conditions: Assay A; 20 μM ATP, 40 min incubation; read-out: SGK1 IC50

| SMILES | IC50 [nM] |
| --- | --- |
| CC(=O)N1CC=C(c2cc(N3CCC[C@@H](NC(=O)c4csc(-c5ccccc5)n4)C3)c3c(N)ncnn23)C1 [Example 453, (R)-N-(1-(7-(1-acetyl-2,5-dihydro-1H-pyrrol-3-yl)-4-aminopyrrolo[2,1-f][1,2,4]triazin-5-yl)piperidin-3-yl)-2-phenylthiazole-4-carboxamide] | 7 |
| CC(=O)N1CC=C(c2cc(N3CCC[C@@H](NC(=O)c4ccc(-c5ccccc5)o4)C3)c3c(N)ncnn23)C1 [Example 454, (R)-N-(1-(7-(1-acetyl-2,5-dihydro-1H-pyrrol-3-yl)-4-aminopyrrolo[2,1-f][1,2,4]triazin-5-yl)pipridin-3-yl)-5-phenylfuran-2-carboxamide] | 1 |
| CC(=O)N1CC=C(c2cc(N3CCC[C@@H](NC(=O)c4cc5ccccc5n4C)C3)c3c(N)ncnn23)C1 [Example 456, (R)-N-(1-(7-(1-acetyl-2,5-dihydro-1H-pyrrol-3-yl)-4-aminopyrrolo[2,1-f][1,2,4]triazin-5-yl)piperidin-3-yl)-1-methyl-1H-indole-2-carboxamide] | 41 |
| CC(=O)N1CC=C(c2cc(N3CCC[C@@H](NC(=O)C4=NN(c5ccccc5)C(=O)C4)C3)c3c(N)ncnn23)C1 [Example 459, (R)-N-(1-(7-(1-acetyl-2,5-dihydro-1H-pyrrol-3-yl)-4-aminopyrrolo[2,1-f][1,2,4]triazin-5-yl)piperidin-3-yl)-5-oxo-1-phenyl-4,5-dihydro-1H-pyrazole-3-carboxamide] | 392 |
| CC(=O)N1CC=C(c2cc(N3CCC[C@@H](NC(=O)c4ccc(-n5ccnc5)cc4)C3)c3c(N)ncnn23)C1 [Example 460, (R)-N-(1-(7-(1-acetyl-2,5-dihydro-1H-pyrrol-3-yl)-4-aminopyrrolo[2,1-f][1,2,4]triazin-5-yl)piperidin-3-yl)-4-(1H-imidazol-1-yl)benzamide] | 67 |
| CC(=O)N1CC=C(c2cc(N3CCC[C@@H](NC(=O)c4ccc(-c5ccncc5)cc4)C3)c3c(N)ncnn23)C1 [Example 462, (R)-N-(1-(7-(1-acetyl-2,5-dihydro-1H-pyrrol-3-yl)-4-aminopyrrolo[2,1-f][1,2,4]triazin-5-yl)piperidin-3-yl)-4-(pyridin-4-yl)benzamide] | 26 |
| CC(=O)N1CC=C(c2cc(N3CCC[C@@H](NC(=O)c4ccc(CN5CCOCC5)cc4)C3)c3c(N)ncnn23)C1 [Example 463, (R)-N-(1-(7-(1-acetyl-2,5-dihydro-1H-pyrrol-3-yl)-4-aminopyrrolo[2,1-f][1,2,4]triazin-5-yl)piperidin-3-yl)-4-(morpholinomethyl)benzamide] | 400 |
| CC(=O)N1CC=C(c2cc(N3CCC[C@@H](NC(=O)c4ccc5c(c4)OCO5)C3)c3c(N)ncnn23)C1 [Example 467, (R)-N-(1-(7-(1-acetyl-2,5-dihydro-1H-pyrrol-3-yl)-4-aminopyrrolo[2,1-f][1,2,4]triazin-5-yl)piperidin-3-yl)benzo[d][1,3]dioxole-5-carboxamide] | 64 |
| COC(=O)C12CC(C(=O)N[C@@H]3CCCN(c4cc(C5=CCN(C(C)=O)C5)n5ncnc(N)c45)C3)(C1)C2 [Example 478, Methyl(R)-3-((1-(7-(1-acetyl-2,5-dihydro-1H-pyrrol-3-yl)-4-aminopyrrolo[2,1-f][1,2,4]triazin-5-yl)piperidin-3-yl)carbamoyl)bicyclo[1.1.1]pentane-1-carboxylate] | 771 |
| COC(=O)N1CC=C(c2cc(N3CCC[C@@H](NC(=O)c4ccc(C(F)F)s4)C3)c3c(N)ncnn23)C1 [Example 480, Methyl (R)-3-(4-amino-5-(3-(5-(difluoromethyl)thiophene-2-carboxamido)piperidin-1-yl)pyrrolo[2,1-f][1,2,4]triazin-7-yl)-2,5-dihydro-1H-pyrrole-1-carboxylate] | 3 |
| Nc1ncnn2c(-c3ccnc(C(F)F)c3)cc(N3CCC[C@@H](NC(=O)c4sc(Cl)cc4O)C3)c12 [Example 481, (R)-N-(1-(4-amino-7-(2-(difluoromethyl)pyridin-4-yl)pyrrolo[2,1-f][1,2,4]triazin-5-yl)piperidin-3-yl)-5-chloro-3-hydroxythiophene-2-carboxamide] | 16 |
| Nc1ncnn2c(-c3ccnc(C(F)F)c3)cc(N3CCC[C@@H](NC(=O)c4ccc(Cl)s4)C3)c12 [Example 483, (R)-N-(1-(4-amino-7-(2-(difluoromethyl)pyridin-4-yl)pyrrolo[2,1-f][1,2,4]triazin-5-yl)piperidin-3-yl)-5-chlorothiophene-2-carboxamide] | 4 |

The remaining lines, values ahead:

| IC50 [nM] | SMILES |
| --- | --- |
| 198 | CC(=O)N1CC=C(c2cc(N3CCC[C@@H](NC(=O)c4ccc5ncsc5c4)C3)c3c(N)ncnn23)C1 [Example 452, (R)-N-(1-(7-(1-acetyl-2,5-dihydro-1H-pyrrol-3-yl)-4-aminopyrrolo[2,1-f][1,2,4]triazin-5-yl)piperidin-3-yl)benzo[d]thiazole-6-carboxamide] |
| 246 | CC(=O)N1CC=C(c2cc(N3CCC[C@@H](NC(=O)c4cc(C)on4)C3)c3c(N)ncnn23)C1 [Example 455, (R)-N-(1-(7-(1-acetyl-2,5-dihydro-1H-pyrrol-3-yl)-4-aminopyrrolo[2,1-f][1,2,4]triazin-5-yl)piperidin-3-yl)-5-methylisoxazole-3-] |
| 18 | CC(=O)N1CC=C(c2cc(N3CCC[C@@H](NC(=O)c4ccc(CO)cc4)C3)c3c(N)ncnn23)C1 [Example 457, (R)-N-(1-(7-(1-acetyl-2,5-dihydro-1H-pyrrol-3-yl)-4-aminopyrrolo[2,1-f][1,2,4]triazin-5-yl)piperidin-3-yl)-4-(hydroxymethyl)benzamide] |
| 3 | CC(=O)N1CC=C(c2cc(N3CCC[C@@H](NC(=O)c4cc(C(C)C)[nH]n4)C3)c3c(N)ncnn23)C1 [Example 458, (R)-N-(1-(7-(1-acetyl-2,5-dihydro-1H-pyrrol-3-yl)-4-aminopyrrolo[2,1-f][1,2,4]triazin-5-yl)piperidin-3-yl)-5-isopropyl-1H-pyrazole-3-carboxamide] |
| 89 | CC(=O)N1CC=C(c2cc(N3CCC[C@@H](NC(=O)c4scnc4C)C3)c3c(N)ncnn23)C1 [Example 461, (R)-N-(1-(7-(1-acetyl-2,5-dihydro-1H-pyrrol-3-yl)-4-aminopyrrolo[2,1-f][1,2,4]triazin-5-yl)piperidin-3-yl)-4-methylthiazole-5-carboxamide] |
| 636 | CC(=O)N1CC=C(c2cc(N3CCC[C@@H](NC(=O)C4=NNC(=O)CC4)C3)c3c(N)ncnn23)C1 [Example 464, (R)-N-(1-(7-(1-acetyl-2,5-dihydro-1H-pyrrol-3-yl)-4-aminopyrrolo[2,1-f][1,2,4]triazin-5-yl)piperidin-3-yl)-6-oxo-1,4,5,6-tetrahydropyridazine-3-carboxamide] |
| 64 | CC(=O)N1CC=C(c2cc(N3CCC[C@@H](NC(=O)c4cccc(N(C)C)c4)C3)c3c(N)ncnn23)C1 [Example 465, (R)-N-(1-(7-(1-acetyl-2,5-dihydro-1H-pyrrol-3-yl)-4-aminopyrrolo[2,1-f][1,2,4]triazin-5-yl)piperidin-3-yl)-3-(dimethylamino)benzamide] |
| 50 | CC(=O)Nc1ccc(C(=O)N[C@@H]2CCCN(c3cc(C4=CCN(C(C)=O)C4)n4ncnc(N)c34)C2)cc1 [Example 466, (R)-4-acetamido-N-(1-(7-(1-acetyl-2,5-dihydro-1H-pyrrol-3-yl)-4-aminopyrrolo[2,1-f][1,2,4]triazin-5-yl)piperidin-3-yl)benzamide] |
| 26 | CC(=O)N1CC=C(c2cc(N3CCC[C@@H](NC(=O)c4ccc(S(C)(=O)=O)cc4)C3)c3c(N)ncnn23)C1 [Example 468, (R)-N-(1-(7-(1-acetyl-2,5-dihydro-1H-pyrrol-3-yl)-4-aminopyrrolo[2,1-f][1,2,4]triazin-5-yl)piperidin-3-yl)-4-(methylsulfonyl)benzamide] |
| 75 | CC(=O)N1CC=C(c2cc(N3CCC[C@@H](NC(=O)c4ccccc4N(C)C)C3)c3c(N)ncnn23)C1 [Example 470, (R)-N-(1-(7-(1-acetyl-2,5-dihydro-1H-pyrrol-3-yl)-4-aminopyrrolo[2,1-f][1,2,4]triazin-5-yl)piperidin-3-yl)-2-(dimethylamino)benzamide] |
| 146 | CC(=O)N1CC=C(c2cc(N3CCC[C@@H](NC(=O)c4nn(-c5ccccc5)nc4C)C3)c3c(N)ncnn23)C1 [Example 471, (R)-N-(1-(7-(1-acetyl-2,5-dihydro-1H-pyrrol-3-yl)-4-aminopyrrolo[2,1-f][1,2,4]triazin-5-yl)piperidin-3-yl)-5-methyl-2-phenyl-2H-1,2,3-tricazole-4-arboxamide] |
| 62 | CC(=O)N1CC=C(c2cc(N3CCC[C@@H](NC(=O)c4sc(C)nc4C)C3)c3c(N)ncnn23)C1 [Example 472, (R)-N-(1-(7-(1-acetyl-2,5-dihydro-1H-pyrrol-3-yl)-4-aminopyrrolo[2,1-f][1,2,4]triazin-5-yl)piperidin-3-yl)-2,4-dimethylthiazole-5-carboxamide] |
| 107 | CC(=O)N1CC=C(c2cc(N3CCC[C@@H](NC(=O)c4snnc4C)C3)c3c(N)ncnn23)C1 [Example 473, (R)-N-(1-(7-(1-acetyl-2,5-dihydro-1H-pyrrol-3-yl)-4-aminopyrrolo[2,1-f][1,2,4]triazin-5-yl)piperidin-3-yl)-4-methyl-1,2,3-thiadiazole-5-carboxamide] |
| 45 | COc1nc(C)c(C(=O)N[C@@H]2CCCN(c3cc(C4=CCN(C(C)=O)C4)n4ncnc(N)c34)C2)s1 [Example 474, (R)-N-(1-(7-(1-acetyl-2,5-dihydro-1H-pyrrol-3-yl)-4-aminopyrrolo[2,1-f][1,2,4]triazin-5-yl)piperidin-3-yl)-2-methoxy-4-methylthiazole-5-carboxamide] |
